Assay results reported in ChEMBL document CHEMBL5291721, “A preclinical secondary pharmacology resource illuminates target-adverse drug reaction associations of marketed drugs” (Nat Commun, 2023).

Experiments:
[1] = molecular target: T1, 5-hydroxytryptamine receptor 3A (Homo sapiens, UniProt P46098); format: functional
T1 sequence (P46098 whole entry): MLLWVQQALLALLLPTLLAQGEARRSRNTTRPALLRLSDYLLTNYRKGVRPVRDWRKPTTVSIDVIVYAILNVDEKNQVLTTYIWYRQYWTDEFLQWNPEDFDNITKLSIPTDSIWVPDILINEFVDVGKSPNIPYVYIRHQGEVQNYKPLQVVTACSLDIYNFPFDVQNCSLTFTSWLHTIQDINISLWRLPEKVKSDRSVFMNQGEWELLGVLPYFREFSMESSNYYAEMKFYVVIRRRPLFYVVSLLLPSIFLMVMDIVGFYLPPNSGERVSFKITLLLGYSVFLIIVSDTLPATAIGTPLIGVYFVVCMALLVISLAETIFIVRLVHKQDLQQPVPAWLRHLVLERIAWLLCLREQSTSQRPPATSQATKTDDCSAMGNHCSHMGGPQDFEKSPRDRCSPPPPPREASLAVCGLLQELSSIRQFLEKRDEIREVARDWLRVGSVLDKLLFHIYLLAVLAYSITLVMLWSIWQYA

[2] = molecular target: Growth hormone secretagogue receptor type 1 (Homo sapiens, UniProt Q92847)
[3] = molecular target: T2, Neuropeptide Y receptor type 1 (Homo sapiens, UniProt P25929); conditions: read-out: AC50
T2 sequence (P25929 whole entry): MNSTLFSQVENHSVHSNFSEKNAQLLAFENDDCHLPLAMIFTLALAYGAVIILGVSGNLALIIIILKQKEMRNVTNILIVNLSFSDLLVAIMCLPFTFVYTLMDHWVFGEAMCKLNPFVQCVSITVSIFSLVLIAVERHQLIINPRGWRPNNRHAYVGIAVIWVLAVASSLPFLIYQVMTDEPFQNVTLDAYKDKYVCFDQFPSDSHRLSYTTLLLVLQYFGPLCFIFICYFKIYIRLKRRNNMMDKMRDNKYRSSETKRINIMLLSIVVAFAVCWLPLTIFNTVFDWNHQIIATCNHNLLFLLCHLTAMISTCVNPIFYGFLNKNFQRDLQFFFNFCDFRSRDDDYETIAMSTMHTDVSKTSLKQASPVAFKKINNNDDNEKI

Histamine H2 receptor = Histamine H2 receptor (Homo sapiens, UniProt P25021); format: functional, cell-based
Adenosine receptor A3 = molecular target: T3, Adenosine receptor A3 (Homo sapiens, UniProt P0DMS8)
T3 sequence (P0DMS8 whole entry): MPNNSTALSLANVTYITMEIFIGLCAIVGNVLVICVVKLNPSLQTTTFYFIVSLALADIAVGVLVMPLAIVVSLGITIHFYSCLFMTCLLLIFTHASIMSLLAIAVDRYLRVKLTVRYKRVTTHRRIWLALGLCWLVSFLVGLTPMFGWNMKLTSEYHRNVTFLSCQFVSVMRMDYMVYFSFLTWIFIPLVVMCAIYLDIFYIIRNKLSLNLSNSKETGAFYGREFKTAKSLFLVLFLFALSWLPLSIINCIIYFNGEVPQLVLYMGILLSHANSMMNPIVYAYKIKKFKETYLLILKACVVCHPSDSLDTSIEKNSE

[4] = molecular target: T4, Alpha-2C adrenergic receptor (Homo sapiens, UniProt P18825); format: functional
T4 sequence (P18825 whole entry): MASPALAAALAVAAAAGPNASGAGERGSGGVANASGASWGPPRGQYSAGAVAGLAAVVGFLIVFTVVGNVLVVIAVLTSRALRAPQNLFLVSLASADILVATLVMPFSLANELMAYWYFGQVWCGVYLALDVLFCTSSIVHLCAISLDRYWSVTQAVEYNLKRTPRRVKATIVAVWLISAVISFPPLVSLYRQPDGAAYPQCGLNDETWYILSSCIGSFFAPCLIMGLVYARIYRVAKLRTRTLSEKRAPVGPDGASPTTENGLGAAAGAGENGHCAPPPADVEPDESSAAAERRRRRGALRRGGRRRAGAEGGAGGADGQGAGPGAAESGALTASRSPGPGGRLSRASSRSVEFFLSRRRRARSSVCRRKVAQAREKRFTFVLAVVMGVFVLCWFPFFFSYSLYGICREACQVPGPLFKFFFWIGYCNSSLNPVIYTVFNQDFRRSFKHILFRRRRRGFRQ

[5] = molecular target: 3',5'-cyclic-AMP phosphodiesterase 4D (Homo sapiens, UniProt Q08499); format: functional
Thromboxane A2 receptor = molecular target: T5, Thromboxane A2 receptor (Homo sapiens, UniProt P21731)
T5 sequence (P21731 whole entry): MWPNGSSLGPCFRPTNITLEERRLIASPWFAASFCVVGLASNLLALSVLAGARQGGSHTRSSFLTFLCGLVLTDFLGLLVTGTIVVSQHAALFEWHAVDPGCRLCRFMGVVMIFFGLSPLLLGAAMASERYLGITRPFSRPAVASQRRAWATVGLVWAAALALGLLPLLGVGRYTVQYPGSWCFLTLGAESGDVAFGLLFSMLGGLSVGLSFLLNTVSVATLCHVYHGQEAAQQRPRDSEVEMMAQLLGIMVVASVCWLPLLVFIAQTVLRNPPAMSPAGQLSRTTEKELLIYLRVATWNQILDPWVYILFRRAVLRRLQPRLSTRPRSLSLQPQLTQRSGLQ

Motilin receptor = Motilin receptor (Homo sapiens, UniProt O43193)
[6] = molecular target: T6, Type-1 angiotensin II receptor (Homo sapiens, UniProt P30556)
T6 sequence (P30556 whole entry): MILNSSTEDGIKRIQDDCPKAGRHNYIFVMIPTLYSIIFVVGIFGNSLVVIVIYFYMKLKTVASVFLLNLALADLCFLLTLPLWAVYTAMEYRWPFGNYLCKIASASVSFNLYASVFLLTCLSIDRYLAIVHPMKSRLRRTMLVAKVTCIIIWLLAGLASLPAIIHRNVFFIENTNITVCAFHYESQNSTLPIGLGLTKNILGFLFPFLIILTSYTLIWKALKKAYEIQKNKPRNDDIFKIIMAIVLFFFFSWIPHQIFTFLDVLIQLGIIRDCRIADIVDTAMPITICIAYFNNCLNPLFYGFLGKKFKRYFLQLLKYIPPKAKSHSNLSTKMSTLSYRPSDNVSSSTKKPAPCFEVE

[7] = molecular target: Sodium-dependent noradrenaline transporter (Homo sapiens, UniProt P23975)
[8] = molecular target: Neuronal acetylcholine receptor subunit alpha-4 (Homo sapiens, UniProt P43681)
Adenosine receptor A2a = Adenosine receptor A2a (Homo sapiens, UniProt P29274)
Also: assay procedure not described here.

Chain of Sodium-dependent noradrenaline transporter (P23975 whole entry): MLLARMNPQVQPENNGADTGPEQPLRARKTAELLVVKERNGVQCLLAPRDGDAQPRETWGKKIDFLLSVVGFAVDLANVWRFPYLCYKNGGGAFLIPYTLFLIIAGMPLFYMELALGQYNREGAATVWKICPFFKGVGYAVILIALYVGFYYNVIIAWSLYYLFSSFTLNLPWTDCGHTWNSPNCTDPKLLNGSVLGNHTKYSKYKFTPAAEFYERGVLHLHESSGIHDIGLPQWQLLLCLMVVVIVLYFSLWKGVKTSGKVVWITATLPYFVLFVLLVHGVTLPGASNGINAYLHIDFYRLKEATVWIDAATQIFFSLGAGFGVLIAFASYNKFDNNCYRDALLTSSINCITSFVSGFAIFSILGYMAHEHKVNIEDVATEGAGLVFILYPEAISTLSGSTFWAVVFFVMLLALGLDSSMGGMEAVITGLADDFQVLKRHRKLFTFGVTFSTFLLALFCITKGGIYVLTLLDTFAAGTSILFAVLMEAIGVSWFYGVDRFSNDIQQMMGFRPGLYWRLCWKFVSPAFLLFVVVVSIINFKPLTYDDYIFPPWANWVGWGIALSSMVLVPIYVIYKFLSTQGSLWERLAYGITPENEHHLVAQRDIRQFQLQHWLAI
Chain of Histamine H2 receptor (P25021 whole entry): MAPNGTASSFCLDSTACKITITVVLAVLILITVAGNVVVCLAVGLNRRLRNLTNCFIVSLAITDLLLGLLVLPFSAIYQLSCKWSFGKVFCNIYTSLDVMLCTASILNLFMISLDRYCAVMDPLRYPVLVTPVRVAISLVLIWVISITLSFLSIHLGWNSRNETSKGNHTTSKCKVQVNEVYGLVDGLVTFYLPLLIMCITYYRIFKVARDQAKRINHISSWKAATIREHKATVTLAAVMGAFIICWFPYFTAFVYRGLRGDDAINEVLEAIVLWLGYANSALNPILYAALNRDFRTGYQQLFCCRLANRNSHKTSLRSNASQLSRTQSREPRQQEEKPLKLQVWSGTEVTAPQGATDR
Chain of 3',5'-cyclic-AMP phosphodiesterase 4D (Q08499 whole entry): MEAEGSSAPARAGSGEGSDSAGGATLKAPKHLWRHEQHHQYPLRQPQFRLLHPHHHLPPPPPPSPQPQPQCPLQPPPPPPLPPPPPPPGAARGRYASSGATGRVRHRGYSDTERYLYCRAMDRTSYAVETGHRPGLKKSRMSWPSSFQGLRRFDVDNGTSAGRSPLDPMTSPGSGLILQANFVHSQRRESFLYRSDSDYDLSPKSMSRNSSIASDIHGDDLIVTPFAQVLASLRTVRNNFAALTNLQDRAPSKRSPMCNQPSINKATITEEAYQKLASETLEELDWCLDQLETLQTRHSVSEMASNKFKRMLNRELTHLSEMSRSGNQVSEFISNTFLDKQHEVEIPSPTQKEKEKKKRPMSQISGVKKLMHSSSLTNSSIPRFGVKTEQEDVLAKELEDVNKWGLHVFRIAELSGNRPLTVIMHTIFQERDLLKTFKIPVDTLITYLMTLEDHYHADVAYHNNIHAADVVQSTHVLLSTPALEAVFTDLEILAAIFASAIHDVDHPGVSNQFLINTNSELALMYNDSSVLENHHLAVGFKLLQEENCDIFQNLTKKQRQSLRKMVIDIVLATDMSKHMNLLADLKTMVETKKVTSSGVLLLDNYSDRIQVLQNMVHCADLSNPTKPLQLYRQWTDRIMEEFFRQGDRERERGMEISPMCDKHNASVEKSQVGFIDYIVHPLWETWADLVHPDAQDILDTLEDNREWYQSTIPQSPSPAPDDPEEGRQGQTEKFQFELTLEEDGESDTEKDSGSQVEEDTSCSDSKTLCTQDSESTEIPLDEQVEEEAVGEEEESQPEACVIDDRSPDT
Chain of Growth hormone secretagogue receptor type 1 (Q92847 whole entry): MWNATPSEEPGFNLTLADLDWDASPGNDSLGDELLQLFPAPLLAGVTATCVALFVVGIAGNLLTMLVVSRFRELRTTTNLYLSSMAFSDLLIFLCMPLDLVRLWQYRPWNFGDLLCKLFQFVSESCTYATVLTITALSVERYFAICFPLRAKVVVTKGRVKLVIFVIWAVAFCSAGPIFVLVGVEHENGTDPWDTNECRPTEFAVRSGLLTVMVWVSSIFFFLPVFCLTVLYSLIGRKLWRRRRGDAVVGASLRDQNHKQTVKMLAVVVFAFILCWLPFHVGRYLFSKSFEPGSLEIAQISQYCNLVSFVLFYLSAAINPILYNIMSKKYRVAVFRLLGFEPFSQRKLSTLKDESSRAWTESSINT
Chain of Adenosine receptor A2a (P29274 whole entry): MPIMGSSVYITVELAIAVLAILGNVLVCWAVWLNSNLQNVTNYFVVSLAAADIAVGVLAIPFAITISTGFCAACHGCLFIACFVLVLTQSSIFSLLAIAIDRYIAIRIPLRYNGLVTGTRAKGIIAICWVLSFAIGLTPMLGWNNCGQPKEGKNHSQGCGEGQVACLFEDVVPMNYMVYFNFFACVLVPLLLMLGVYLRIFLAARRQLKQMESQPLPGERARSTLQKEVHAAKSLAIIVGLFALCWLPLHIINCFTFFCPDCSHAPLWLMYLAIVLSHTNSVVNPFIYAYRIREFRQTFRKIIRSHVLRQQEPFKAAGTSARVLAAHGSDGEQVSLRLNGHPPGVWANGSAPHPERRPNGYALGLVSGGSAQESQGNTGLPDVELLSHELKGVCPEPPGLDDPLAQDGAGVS
Chain of Neuronal acetylcholine receptor subunit alpha-4 (P43681 whole entry): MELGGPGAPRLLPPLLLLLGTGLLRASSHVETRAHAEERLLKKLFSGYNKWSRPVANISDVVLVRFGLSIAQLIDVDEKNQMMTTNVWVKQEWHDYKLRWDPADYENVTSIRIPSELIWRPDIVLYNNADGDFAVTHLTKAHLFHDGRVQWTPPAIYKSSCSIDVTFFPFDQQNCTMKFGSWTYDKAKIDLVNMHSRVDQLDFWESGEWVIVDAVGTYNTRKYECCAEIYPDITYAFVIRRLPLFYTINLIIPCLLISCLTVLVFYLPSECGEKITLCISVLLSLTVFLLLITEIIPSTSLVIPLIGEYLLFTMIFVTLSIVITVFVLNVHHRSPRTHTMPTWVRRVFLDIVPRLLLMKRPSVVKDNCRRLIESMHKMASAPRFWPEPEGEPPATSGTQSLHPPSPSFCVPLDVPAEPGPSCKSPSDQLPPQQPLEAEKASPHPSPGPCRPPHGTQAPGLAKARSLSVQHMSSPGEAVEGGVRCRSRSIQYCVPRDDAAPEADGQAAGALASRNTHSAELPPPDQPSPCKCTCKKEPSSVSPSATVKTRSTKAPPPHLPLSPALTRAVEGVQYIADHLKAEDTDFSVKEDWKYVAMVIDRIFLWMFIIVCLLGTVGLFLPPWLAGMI
Chain of Motilin receptor (O43193 whole entry): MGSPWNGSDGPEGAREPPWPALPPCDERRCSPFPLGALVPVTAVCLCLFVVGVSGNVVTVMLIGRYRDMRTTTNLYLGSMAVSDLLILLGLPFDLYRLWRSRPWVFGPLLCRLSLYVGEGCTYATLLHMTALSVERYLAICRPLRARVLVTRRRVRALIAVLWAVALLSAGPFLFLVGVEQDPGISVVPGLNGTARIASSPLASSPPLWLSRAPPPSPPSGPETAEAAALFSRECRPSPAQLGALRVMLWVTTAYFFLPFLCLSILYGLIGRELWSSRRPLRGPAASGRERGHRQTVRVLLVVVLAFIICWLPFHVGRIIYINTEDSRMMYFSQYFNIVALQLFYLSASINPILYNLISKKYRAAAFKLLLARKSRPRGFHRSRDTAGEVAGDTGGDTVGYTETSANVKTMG

| Compound | AC50 [1] [µM] | AC50 [2] [µM] | AC50 [3] [µM] | AC50 (Histamine H2 receptor) [µM] | AC50 (Adenosine receptor A3) [µM] | AC50 [4] [µM] | AC50 [5] [µM] | AC50 (Thromboxane A2 receptor) [µM] | AC50 (Motilin receptor) [µM] | AC50 [6] [µM] | AC50 [7] [µM] | AC50 [8] [µM] | AC50 (Adenosine receptor A2a) [µM] |
| --- | --- | --- | --- | --- | --- | --- | --- | --- | --- | --- | --- | --- | --- |
| COc1cc(N)c(Cl)cc1C(=O)NC1CCN(Cc2ccccc2)CC1 [CLEBOPRIDE] | 8.6 | > 30 | > 30 | > 30 | > 30 | 2.1 | 2.9 | > 30 | > 30 | > 30 | 15 | 24 | > 30 |
| CCCCC(=O)O[C@]1(C(=O)CO)[C@@H](C)C[C@H]2[C@@H]3CCC4=CC(=O)C=C[C@]4(C)[C@@]3(F)[C@@H](O)C[C@@]21C [BETAMETHASONE VALERATE] | > 30 | > 30 | > 30 | > 10 | > 30 | > 10 | > 30 | > 30 | > 10 | > 30 | > 30 | > 10 | > 30 |
| CC(CCc1ccc(O)cc1)NCCc1ccc(O)c(O)c1 (centres undefined) [DOBUTAMINE] | 27 | > 30 | > 30 | > 10 | 22.9 | 0.798 | > 30 | > 30 | > 30 | > 30 | 1.73 | > 30 | > 30 |
| COCC1=C(C(=O)O)N2C(=O)[C@@H](NC(=O)/C(=N\OC)c3csc(N)n3)[C@H]2SC1 [CEFPODOXIME] | > 30 | > 30 | > 30 | > 30 | > 30 | > 30 | > 30 | > 30 | > 30 | > 30 | > 30 | > 30 | > 30 |
| CC(C)[C@H](N)C(=O)OCC(CO)OCn1cnc2c(=O)nc(N)[nH]c21 (some centres undefined) [VALGANCICLOVIR] | > 30 | > 30 | > 30 | > 30 | > 30 | > 30 | > 30 | > 30 | > 30 | > 30 | > 30 | > 30 | > 30 |
| C=CCNc1nc(NCC=C)nc(N2CCN(C(c3ccc(F)cc3)c3ccc(F)cc3)CC2)n1 [ALMITRINE] | > 30 | > 30 | > 30 | > 30 | > 30 | > 30 | > 30 | > 30 | > 30 | > 30 | > 30 | > 30 | > 30 |
| CCC(=O)O[C@H]1CC[C@H]2[C@@H]3CCC4=CC(=O)CC[C@]4(C)[C@H]3CC[C@]12C [TESTOSTERONE PROPIONATE] | > 30 | > 10 | > 10 | > 10 | > 10 | > 10 | > 30 | > 10 | > 10 | > 10 | > 10 | > 10 | > 10 |
| CC(N)C(O)c1ccccc1 (centres undefined) [PHENYLPROPANOLAMINE] | > 10 | > 30 | > 30 | > 10 | > 30 | 7.3 | > 30 | > 30 | > 10 | > 30 | > 30 | > 10 | > 30 |
